According to US10213433B2 (AbbVie Inc., priority 2010, dated 2019):

molecular target: Bcl-2 protein (Homo sapiens (Human), UniProt P10415); experiment: Bcl-2 binding TR-FRET (Time-Resolved Fluorescence-Resonance-Energy-Transfer) assay; settings: inhibition constant for binding to Bcl-2 protein
Text: The smaller the Ki value, the greater is the binding affinity.

Sequence of Bcl-2 protein (P10415 whole entry): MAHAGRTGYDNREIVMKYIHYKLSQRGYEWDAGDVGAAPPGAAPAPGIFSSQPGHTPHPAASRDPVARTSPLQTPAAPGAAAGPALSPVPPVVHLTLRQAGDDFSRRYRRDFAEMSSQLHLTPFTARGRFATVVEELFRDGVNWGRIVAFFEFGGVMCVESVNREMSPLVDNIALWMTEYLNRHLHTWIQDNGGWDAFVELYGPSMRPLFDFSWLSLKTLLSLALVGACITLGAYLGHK

SMILES	Ki [nM]
O=C(NS(=O)(=O)c1ccc(NCC2CCOCC2)c([N+](=O)[O-])c1)c1ccc(N2CCN(CC3=C(c4ccc(Cl)cc4)CCC4(CCN(C(CF)CF)CC4)C3)CC2)cc1Oc1cnc2[nH]ccc2c1 [Compound 265, 4-(4-{[9-(4-chlorophenyl)-3-(1,3-difluoropropan-2-yl)-3-azaspiro[5.5]undec-8-en-8-yl]methyl}piperazin-1-yl)-N-({3-nitro-4-[(tetrahydro-2H-pyran-4-ylmethyl)amino]phenyl}sulfonyl)-2-(1H-pyrrolo[2,3-b]pyridin-5-yloxy)benzamide]	< 0.01
CC(C)N1CCC2(CCC(c3ccc(Cl)cc3)=C(CN3CCN(c4ccc(C(=O)NS(=O)(=O)c5ccc(NCC6CCOCC6)c([N+](=O)[O-])c5)c(Oc5cnc6[nH]ccc6c5)c4)CC3)C2)CC1 [Compound 266, 4-(4-{[9-(4-chlorophenyl)-3-isopropyl-3-azaspiro[5.5]undec-8-en-8-yl]methyl}piperazin-1-yl)-N-({3-nitro-4-[(tetrahydro-2H-pyran-4-ylmethyl)amino]phenyl}sulfonyl)-2-(1H-pyrrolo[2,3-b]pyridin-5-yloxy)benzamide]	< 0.01
CC(C)N1CCC2(CCC(c3ccc(Cl)cc3)=C(CN3CCN(c4ccc(C(=O)NS(=O)(=O)c5cnc(OCC6CCOCC6)c(Cl)c5)c(Oc5cnc6[nH]ccc6c5)c4)CC3)C2)CC1 [Compound 268, 4-(4-{[9-(4-chlorophenyl)-3-isopropyl-3-azaspiro[5.5]undec-8-en-8-yl]methyl}piperazin-1-yl)-N-{[5-chloro-6-(tetrahydro-2H-pyran-4-ylmethoxy)pyridin-3-yl]sulfonyl}-2-(1H-pyrrolo[2,3-b]pyridin-5-yloxy)benzamide]	< 0.01
CN(C)CC(=O)N1CCC(F)(COc2ncc(S(=O)(=O)NC(=O)c3ccc(N4CCN(CC5=C(c6ccc(Cl)cc6)CC(C)(C)CC5)CC4)cc3Oc3cnc4[nH]ccc4c3)cc2Cl)CC1 [Compound 270, N-[(5-chloro-6-{[1-(N,N-dimethylglycyl)-4-fluoropiperidin-4-yl]methoxy}pyridin-3-yl)sulfonyl]-4-(4-{[2-(4-chlorophenyl)-4,4-dimethylcyclohex-1-en-1-yl]methyl}piperazin-1-yl)-2-(1H-pyrrolo[2,3-b]pyridin-5-yloxy)benzamide]	< 0.01
CC1(C)CCC(CN2CCN(c3ccc(C(=O)NS(=O)(=O)c4ccc(OCCOC5CCOC5)c([N+](=O)[O-])c4)c(Oc4cnc5[nH]ccc5c4)c3)CC2)=C(c2ccc(Cl)cc2)C1 (stereo not drawn) [Compound 275, 4-(4-{[2-(4-chlorophenyl)-4,4-dimethylcyclohex-1-en-1-yl]methyl}piperazin-1-yl)-N-({3-nitro-4-[2-(tetrahydrofuran-3-yloxy)ethoxy]phenyl}sulfonyl)-2-(1H-pyrrolo[2,3-b]pyridin-5-yloxy)benzamide]	< 0.01
CC1(C)CCC(CN2CCN(c3ccc(C(=O)NS(=O)(=O)c4cnc(OCC5(F)CCN(C(CF)CF)CC5)c(Cl)c4)c(Oc4cnc5[nH]ccc5c4)c3)CC2)=C(c2ccc(Cl)cc2)C1 [Compound 282, N-[(5-chloro-6-{[1-(1,3-difluoropropan-2-yl)-4-fluoropiperidin-4-yl]methoxy}pyridin-3-yl)sulfonyl]-4-(4-{[2-(4-chlorophenyl)-4,4-dimethylcyclohex-1-en-1-yl]methyl}piperazin-1-yl)-2-(1H-pyrrolo[2,3-b]pyridin-5-yloxy)benzamide]	< 0.01
CN1CCC(F)(COc2ccc(S(=O)(=O)NC(=O)c3ccc(N4CCN(CC5=C(c6ccc(Cl)cc6)CC(C)(C)CC5)CC4)cc3Oc3cnc4[nH]ccc4c3)cc2Cl)CC1 [Compound 283, N-({3-chloro-4-[(4-fluoro-1-methylpiperidin-4-yl)methoxy]phenyl}sulfonyl)-4-(4-{[2-(4-chlorophenyl)-4,4-dimethylcyclohex-1-en-1-yl]methyl}piperazin-1-yl)-2-(1H-pyrrolo[2,3-b]pyridin-5-yloxy)benzamide]	< 0.01
CC1(C)CCC(CN2CCN(c3ccc(C(=O)NS(=O)(=O)c4cnc(OCC5(F)CCN(CC(F)F)CC5)c(Cl)c4)c(Oc4cnc5[nH]ccc5c4)c3)CC2)=C(c2ccc(Cl)cc2)C1 [Compound 285, N-[(5-chloro-6-{[1-(2,2-difluoroethyl)-4-fluoropiperidin-4-yl]methoxy}pyridin-3-yl)sulfonyl]-4-(4-{[2-(4-chlorophenyl)-4,4-dimethylcyclohex-1-en-1-yl]methyl}piperazin-1-yl)-2-(1H-pyrrolo[2,3-b]pyridin-5-yloxy)benzamide]	< 0.01
CC1CN(c2ccc(C(=O)NS(=O)(=O)c3ccc(NCC4CCOCC4)c([N+](=O)[O-])c3)c(Oc3cnc4[nH]ccc4c3)c2)CCN1CC1=C(c2ccc(Cl)cc2)CC(C)(C)CC1 (stereo not drawn) [Compound 290, 4-(4-{[2-(4-chlorophenyl)-4,4-dimethylcyclohex-1-en-1-yl]methyl}-3-methylpiperazin-1-yl)-N-({3-nitro-4-[(tetrahydro-2H-pyran-4-ylmethyl)amino]phenyl}sulfonyl)-2-(1H-pyrrolo[2,3-b]pyridin-5-yloxy)benzamide]	< 0.01
CC1(C)CCC(CN2CCN(c3ccc(C(=O)NS(=O)(=O)c4ccc(NCCCNC5CC5)c([N+](=O)[O-])c4)c(Oc4cnc5[nH]ccc5c4)c3)CC2)=C(c2ccc(Cl)cc2)C1 [Compound 291, 4-(4-{[2-(4-chlorophenyl)-4,4-dimethylcyclohex-1-en-1-yl]methyl}piperazin-1-yl)-N-[(4-{[3-(cyclopropylamino)propyl]amino}-3-nitrophenyl)sulfonyl]-2-(1H-pyrrolo[2,3-b]pyridin-5-yloxy)benzamide]	< 0.01
CN(C)CC(=O)N1CCC(COc2ccc(S(=O)(=O)NC(=O)c3ccc(N4CCN(CC5=C(c6ccc(Cl)cc6)CC(C)(C)CC5)CC4)cc3Oc3cnc4[nH]ccc4c3)cc2Cl)CC1 [Compound 295, N-[(3-chloro-4-{[1-(N,N-dimethylglycyl)piperidin-4-yl]methoxy}phenyl)sulfonyl]-4-(4-{[2-(4-chlorophenyl)-4,4-dimethylcyclohex-1-en-1-yl]methyl}piperazin-1-yl)-2-(1H-pyrrolo[2,3-b]pyridin-5-yloxy)benzamide]	< 0.01
COC(=O)N1CCOC(CNc2ccc(S(=O)(=O)NC(=O)c3ccc(N4CCN(CC5=C(c6ccc(Cl)cc6)CC(C)(C)CC5)CC4)cc3Oc3cnc4[nH]ccc4c3)cc2[N+](=O)[O-])C1 (stereo not drawn) [Compound 317, methyl 2-{[(4-{[4-(4-{[2-(4-chlorophenyl)-4,4-dimethylcyclohex-1-en-1-yl]methyl}piperazin-1-yl)-2-(1H-pyrrolo[2,3-b]pyridin-5-yloxy)benzoyl]sulfamoyl}-2-nitrophenyl)amino]methyl}morpholine-4-carboxylate]	< 0.01
CCN(C)C(=O)N1CCOC(CNc2ccc(S(=O)(=O)NC(=O)c3ccc(N4CCN(CC5=C(c6ccc(Cl)cc6)CC(C)(C)CC5)CC4)cc3Oc3cnc4[nH]ccc4c3)cc2[N+](=O)[O-])C1 (stereo not drawn) [Compound 318, 2-{[(4-{[4-(4-{[2-(4-chlorophenyl)-4,4-dimethylcyclohex-1-en-1-yl]methyl}piperazin-1-yl)-2-(1H-pyrrolo[2,3-b]pyridin-5-yloxy)benzoyl]sulfamoyl}-2-nitrophenyl)amino]methyl}-N-ethyl-N-methylmorpholine-4-carboxamide]	< 0.01
CC1(C)CCC(CN2CCN(c3ccc(C(=O)NS(=O)(=O)c4ccc(NCC5CN(S(C)(=O)=O)CCO5)c([N+](=O)[O-])c4)c(Oc4cnc5[nH]ccc5c4)c3)CC2)=C(c2ccc(Cl)cc2)C1 (stereo not drawn) [Compound 319, 4-(4-{[2-(4-chlorophenyl)-4,4-dimethylcyclohex-1-en-1-yl]methyl}piperazin-1-yl)-N-{[4-({[4-(methylsulfonyl)morpholin-2-yl]methyl}amino)-3-nitrophenyl]sulfonyl}-2-(1H-pyrrolo[2,3-b]pyridin-5-yloxy)benzamide]	< 0.01
CC1(C)CCC(CN2CCN(c3ccc(C(=O)NS(=O)(=O)c4ccc(NCCCN(C5CCC5)C5CC5)c([N+](=O)[O-])c4)c(Oc4cnc5[nH]ccc5c4)c3)CC2)=C(c2ccc(Cl)cc2)C1 [Compound 320, 4-(4-{[2-(4-chlorophenyl)-4,4-dimethylcyclohex-1-en-1-yl]methyl}piperazin-1-yl)-N-{[4-({3-[cyclobutyl(cyclopropyl)amino]propyl}amino)-3-nitrophenyl]sulfonyl}-2-(1H-pyrrolo[2,3-b]pyridin-5-yloxy)benzamide]	< 0.01
O=C(NS(=O)(=O)c1ccc(NCC2CCOCC2)c([N+](=O)[O-])c1)c1ccc(N2CCN(CC3=C(c4ccc(Cl)cc4)CCC(F)(F)C3)CC2)cc1Oc1cnc2[nH]ccc2c1 [Compound 321, 4-(4-{[2-(4-chlorophenyl)-5,5-difluorocyclohex-1-en-1-yl]methyl}piperazin-1-yl)-N-({3-nitro-4-[(tetrahydro-2H-pyran-4-ylmethyl)amino]phenyl}sulfonyl)-2-(1H-pyrrolo[2,3-b]pyridin-5-yloxy)benzamide]	< 0.01
O=C(NS(=O)(=O)c1ccc(OCC2(F)CCOCC2)c(Cl)c1)c1ccc(N2CCN(CC3=C(c4ccc(Cl)cc4)CCC4(CCN(C5COC5)CC4)C3)CC2)cc1Oc1cnc2[nH]ccc2c1 [Compound 325, N-({3-chloro-4-[(4-fluorotetrahydro-2H-pyran-4-yl)methoxy]phenyl}sulfonyl)-4-(4-{[9-(4-chlorophenyl)-3-(oxetan-3-yl)-3-azaspiro[5.5]undec-8-en-8-yl]methyl}piperazin-1-yl)-2-(1H-pyrrolo[2,3-b]pyridin-5-yloxy)benzamide]	< 0.01
CC1(C)CCC(CN2CCN(c3ccc(C(=O)NS(=O)(=O)c4ccc(NC[C@@H]5CN(C6CC6)CCO5)c([N+](=O)[O-])c4)c(Oc4cnc5[nH]ccc5c4)c3)CC2)=C(c2ccc(Cl)cc2)C1 [Compound 326, 4-(4-{[2-(4-chlorophenyl)-4,4-dimethylcyclohex-1-en-1-yl]methyl}piperazin-1-yl)-N-{[4-({[(2R)-4-cyclopropylmorpholin-2-yl]methyl}amino)-3-nitrophenyl]sulfonyl}-2-(1H-pyrrolo[2,3-b]pyridin-5-yloxy)benzamide]	< 0.01
